Measured values reported in patent US10525070B2, “Method of treating heart failure” (priority 2015, dated 2020).
Where “and” joins values, the source holds several entries; their conditions need not be identical. Equal entries are not always repeated. Entries after “also recorded” stand apart in the source; their conditions may differ.

How the values were obtained:
Assay type in all cases: in vivo
Tfr1^hrt/hrt mice [1] = assay: NAD/NADH ratios in tissue with and without NR treatment; conditions: measurements from tissue
[2] = test system: hearts from Tfr1^hrt/hrt mice; assay: p62 protein levels in hearts of NR-treated mice; conditions: NR treated vs untreated, FIGS. 20A and 20B
Text: Atg9A (Novus Biologicals).

[3] = test system: hearts from Tfr1^hrt/hrt mice; assay: UPR^MT mRNA levels in hearts of NR-treated mice (real-time PCR); conditions: P10 hearts, NR treated vs untreated, FIGS. 19A and 19B
Experimental: Total heart RNA was isolated from flash-frozen tissue using the RNeasy Fibrous Tissue Mini Kit (Qiagen) and reverse transcribed as described in Schmidt et al. (2008) Cell Metab. […] For the microarray analysis, the Affymetrix GeneChip® Mouse Genome 430 2.0 Array was used. A minimum of 200 ng RNA was used for each sample. RNA samples were processed by the Duke Microarray Shared Resource Services. Transcript abundance was quantified by 2-step real-time PCR, using amplification conditions as described in Schmidt et al. (2008) Cell Metab. […] Primers are summarized in Table 2 and Rpl19 was used as an internal control.

WT mice = assay: NR rescue experiment, survival of WT mice with NR; conditions: baseline Tfr1^hrt/hrt with PBS, for calculations lifespan was over 19.6 days for wild-type mice
Text: (§1) Survival time was modeled as follows: Tij=μ+Bj+sij
(§2) Where Tij was the survival time (in days) for the i-th mouse in the j-th group. The model explained this in terms of a baseline mean m, an effect bj for the j-th group (relative to baseline) and inter-mouse variation eij. The model was fit using ordinary least squares (1-way ANOVA).
(§3) For the NR rescue experiment, the baseline was Tfr1^hrt/hrt with PBS. There was no significant improvement in mean survival when using just Tfr1^hrt/hrt (0.625 days, p-value=0.26, Table 3). There was, however, a significant improvement in the Tfr1^hrt/hrt with NR group (2.29 days, p-value<0.001). For statistical calculations, lifespan was over 19.6 days for wild-type mice.

Tfr1^hrt/hrt mice [4] = assay: NR rescue experiment, survival of Tfr1^hrt/hrt mice
Text: 129/SvEv mice bearing a floxed Tfrc allele were crossed with transgenic C57BL/6 mice expressing Cre recombinase under the control of the a-MyHC promoter. Backcrossing was with 129/SvEv mice for more than 10 generations and after the initial phenotypic characterization, all studies used mice with a homogeneous 129/SvEv background. Animals were genotyped by polymerase chain reaction (PCR) using genomic DNA from toe clips. Primers for Tfrc alleles, Cre, Hjv alleles, and Rosa26 are described in Table 1.
One-way ANOVA was performed for comparisons between two means, including when the comparison was between the means of WT and Tfr1^hrt/hrt. Survival analysis was performed using Logrank in Graphpad software. P<0.05 was considered statistically significant.
An independent statistical analysis for survival analysis was also performed as described below.
as §1, §2, §3

NC(=O)c1ccc[n+]([C@@H]2O[C@H](CO)[C@@H](O)[C@H]2O)c1 [NR, nicotinamide riboside]
NAD/NADH ratios (Tfr1^hrt/hrt mice [1]): inconclusive | Accumulation of p62 in the hearts [2]: alleviated the accumulation | Expression of UPR^MT mRNAs (Atf4, Lonp1, Ddit3, Fgf21) in heart [3]: decreased expression; also recorded: blunted | Effect: survival relative to baseline (WT mice): 19.625 days | Extension of lifespan (Tfr1^hrt/hrt mice [4]; Tfr1^hrt/hrt mice, NR administration, FIG. 7E): up to 5 days | Prolongation of lifespans (Tfr1^hrt/hrt mice [4]; Tfr1^hrt/hrt mice, NR vs vehicle, FIG. 7E): up to 50% | Effect: improvement in mean survival relative to baseline (Tfr1^hrt/hrt mice [4]; Tfr1^hrt/hrt with NR, 750 mg/kg IP daily from P5, baseline Tfr1^hrt/hrt with PBS (10.375), 1-way ANOVA model, p<0.001, 750 mg/kg): 2.29 days and 2.292 days | Lifespan of treated mice (in words) (Tfr1^hrt/hrt mice [4]; in the absence of iron therapy): increased the lifespan
